This experiment deals with TNF synthesis in human PBMC. Put plainly: Human PBMC TNF Synthesis Assay. The format is cell-based. As to conditions: LPS-stimulated human PBMC, overnight incubation, TNF ELISA; read-out: TNF inhib. As for the experimental part: Human PBMC TNF Synthesis Assay
Human PBMC were obtained by from a healthy human donor leuko pak. Typically, all donors were pre-screened for STD, HIV and have been given a physical by a physician. One to two ampoules were thawed at 37° C. and then resuspended in 45 to 85 mL of RPMI+10% FBS to a final concentration of 2.5×10^6 cells/mL. Resuspended cells were filtered to remove any large clumps.
Prepare compounds for addition to cells: All compounds were DMSO stocks at 20 mM. Working stock for cell testing were prepared as 4× concentrated material in RPMI+10% FBS. Compounds were added to a polypropylene block and then diluted with the appropriate amount of RPMI+10% FBS. Typically 2.6 μL of 20 mM stock was diluted to 650 μL final volume to yield an 80 μM starting concentration in the stocks. RPMI was added to DMSO stock by pipetting into the tube or block. The compounds were then serial diluted with RPMI+10% FBS. The final DMSO concentrations were not greater than 0.5% in the assay.
Compounds were added to the cells as 4× working stock. 50 μL of compound was prepared above is added to the cells and re-equilibrated in a humidified 5% CO2 incubator at 37° C. for 30 minutes.
A stock of LPS was prepared using RPMI+10% FBS. To prepare the stock, 2.8 μL of LPS (5 mg/mL; Sigma Cat #L3024) was added to 35 mL of media. 50 μL of the LPS in media was added to the cells. Control cultures without LPS received only RPMI+10% FBS. After an overnight incubation at 37° C., the cell culture supernatant was harvested and stored in a polypropylene 96 well plate.
Samples were tested for TNF as per the manufacturer's instructions (TNF ELISA; R&D Systems, Cat #DY210). The samples were serially diluted with PBS+1% BSA to the appropriate dilution condition for the cell prep, typically a 1:4 or 1:6 dilution.

On to `CCn1c(=O)c2cnc3c(OC)cccc3c2n(C2CCCC2)c1=O` [Example 1, 1-cyclopentyl-3-ethyl-7-methoxy-1H-pyrimido[5,4-c]quinoline-2,4-dione], for which the IC50 is 180 nM. For `CCn1c(=O)c2cnc3c(OC)cccc3c2n(-c2ccc(OC)c(OC)c2)c1=O` [Example 4, 1-(3,4-Dimethoxy-phenyl)-3-ethyl-7-methoxy-1H-pyrimido[5,4-c]quinoline-2,4-dione] the value was 14200 nM; for `COc1cccc2c1ncc1c(=O)n(C(C)C)c(=O)n(C3CCCC3)c12` [Example 5, 1-Cyclopentyl-3-isopropyl-7-methoxy-1H-pyrimido[5,4-c]quinoline-2,4-dione], 270 nM. To `COc1cccc2c1ncc1c(=O)n(-c3cccs3)c(=O)n(C3CCCC3)c12` [Example 10, 1-Cyclopentyl-7-methoxy-3-thiophen-2-yl-1H-pyrimido[5,4-c]quinoline-2,4-dione] belongs 410 nM; to `CCCn1c(=O)n(CC)c(=O)c2cnc3c(OC)cccc3c21` [Example 16, 3-Ethyl-7-methoxy-1-propyl-1H-pyrimido[5,4-c]quinoline-2,4-dione], 680 nM.

As to `CCCCn1c(=O)n(CC)c(=O)c2cnc3c(OC)cccc3c21` [Example 17, 1-Butyl-3-ethyl-7-methoxy-1H-pyrimido[5,4-c]quinoline-2,4-dione], the IC50 was found to be 390 nM.

As for `CCn1c(=O)c2cnc3c(OC)cccc3c2n(CC(C)C)c1=O` [Example 18, 3-Ethyl-1-isobutyl-7-methoxy-1H-pyrimido[5,4-c]quinoline-2,4-dione], the IC50 stood at 1100 nM. Regarding `CCn1c(=O)c2cnc3c(OC)cc(Cl)cc3c2n(C2CCCC2)c1=O` [Example 28, 9-Chloro-1-cyclopentyl-3-ethyl-7-methoxy-1H-pyrimido[5,4-c]quinoline-2,4-dione], the IC50 was 3500 nM. On to `CCn1c(=O)c2cnc3c(Cl)cccc3c2n(C2CCCC2)c1=O` [Example 30, 7-Chloro-1-cyclopentyl-3-ethyl-1H-pyrimido[5,4-c]quinoline-2,4-dione], for which the IC50 worked out at 2500 nM. To `CCCc1cccc2c1ncc1c(=O)n(CC)c(=O)n(C3CCCC3)c12` [Example 32, 1-Cyclopentyl-3-ethyl-7-propyl-1H-pyrimido[5,4-c]quinoline-2,4-dione] belongs 2600 nM; to `CCn1c(=O)c2cnc3c(C(C)C)cccc3c2n(C2CCCC2)c1=O` [Example 33, 1-Cyclopentyl-3-ethyl-7-isopropyl-1H-pyrimido[5,4-c]quinoline-2,4-dione], 20000 nM.

`CCn1c(=O)c2cnc3c(OC(F)(F)F)cccc3c2n(C2CCCC2)c1=O` [Example 34, 1-Cyclopentyl-3-ethyl-7-trifluoromethoxy-1H-pyrimido[5,4-c]quinoline-2,4-dione]: the IC50 is 3600 nM. Turning to `CCn1c(=O)c2cnc3c(OC)cccc3c2n(C(C)C)c1=O` [Example 37, 3-Ethyl-1-isopropyl-7-methoxy-1H-pyrimido[5,4-c]quinoline-2,4-dione], the IC50 worked out at 20000 nM. To `CCC(C)n1c(=O)c2cnc3c(OC)cccc3c2n(C2CCCC2)c1=O` (stereo not shown) [Example 38, 3-sec-Butyl-1-cyclopentyl-7-methoxy-1H-pyrimido[5,4-c]quinoline-2,4-dione] belongs 450 nM; to `COc1cccc2c1ncc1c(=O)n(-c3ccccc3)c(=O)n(C3CCCC3)c12` [Example 39, 1-Cyclopentyl-7-methoxy-3-phenyl-1H-pyrimido[5,4-c]quinoline-2,4-dione], 1300 nM. In the case of `CCn1c(=O)c2cnc3c(C)cccc3c2n(C2CCCC2)c1=O` [Example 41, 1-Cyclopentyl-3-ethyl-7-methyl-1H-pyrimido[5,4-c]quinoline-2,4-dione], the IC50 worked out at 500 nM. Consider `CCn1c(=O)c2cnc3c(OC)cccc3c2n(C2CCC(C)CC2)c1=O` (stereo not shown) [Example 45, 3-Ethyl-7-methoxy-1-(4-methyl-cyclohexyl)-1H-pyrimido[5,4-c]quinoline-2,4-dione], for which the IC50 was determined as 200 nM. To `CCOC(=O)Cn1c(=O)c2cnc3c(OC)cccc3c2n(C2CCCC2)c1=O` [Example 46, (1-Cyclopentyl-7-methoxy-2,4-dioxo-1,4-dihydro-2H-pyrimido[5,4-c]quinolin-3-yl)-acetic acid ethyl ester] belongs 1000 nM; to `COc1cccc2c1ncc1c(=O)n(C)c(=O)n(C3CCCC3)c12` [Example 48, 1-Cyclopentyl-7-methoxy-3-methyl-1H-pyrimido[5,4-c]quinoline-2,4-dione], 1400 nM. To `COc1cccc2c1ncc1c(=O)n(-c3cc(C)cs3)c(=O)n(C3CCCC3)c12` [Example 51, 1-Cyclopentyl-7-methoxy-3-(4-methyl-thiophen-2-yl)-1H-pyrimido[5,4-c]quinoline-2,4-dione] belongs 30 nM. As for `COc1cccc2c1ncc1c(=O)n(-c3cccc(C)c3)c(=O)n(C3CCCC3)c12` [Example 54, 1-Cyclopentyl-7-methoxy-3-m-tolyl-1H-pyrimido[5,4-c]quinoline-2,4-dione], the IC50 came out at 6 nM. As to `COc1cccc2c1ncc1c(=O)n(-c3ccc(C)cc3)c(=O)n(C3CCCC3)c12` [Example 55, 1-Cyclopentyl-7-methoxy-3-p-tolyl-1H-pyrimido[5,4-c]quinoline-2,4-dione], the IC50 came out at 163 nM. To `COc1cccc2c1ncc1c(=O)n(-c3cccc(Cl)c3)c(=O)n(C3CCC(C)CC3)c12` (stereo not shown) [Example 72, 3-(3-Chloro-phenyl)-7-methoxy-1-(4-methyl-cyclohexyl)-1H-pyrimido[5,4-c]quinoline-2,4-dione] belongs 4 nM; to `COc1cccc2c1ncc1c(=O)n(-c3cccc(Cl)c3)c(=O)n(C3CCCC3)c12` [Example 73, 3-(3-Chloro-phenyl)-1-cyclopentyl-7-methoxy-1H-pyrimido[5,4-c]quinoline-2,4-dione], 9 nM; to `CCc1cccc(-n2c(=O)c3cnc4c(OC)cccc4c3n(C3CCCC3)c2=O)c1` [Example 75, 1-Cyclopentyl-3-(3-ethyl-phenyl)-7-methoxy-1H-pyrimido[5,4-c]quinoline-2,4-dione], 6 nM.

`COc1cccc2c1ncc1c(=O)n(-c3cccc(C)c3)c(=O)n(C3CCC(C)CC3)c12` (stereo not shown) [Example 78, 7-Methoxy-1-(4-methyl-cyclohexyl)-3-m-tolyl-1H-pyrimido[5,4-c]quinoline-2,4-dione]: the IC50 was 1 nM. For `COc1cccc2c1ncc1c(=O)n(-c3cccc(Cl)c3)c(=O)n(C3CCC(F)(F)CC3)c12` [Example 87, 3-(3-Chloro-phenyl)-1-(4,4-difluoro-cyclohexyl)-7-methoxy-1H-pyrimido[5,4-c]quinoline-2,4-dione] the value was 2 nM. In the case of `COc1cccc2c1ncc1c(=O)n(-c3cccc(Cl)c3)c(=O)n(C3CCN(C(=O)OC(C)(C)C)CC3)c12` [Example 88, 4-[3-(3-Chloro-phenyl)-7-methoxy-2,4-dioxo-3,4-dihydro-2H-pyrimido[5,4-c]quinolin-1-yl]-piperidine-1-carboxylic acid tert-butyl ester], the IC50 came out at 1 nM. For `COc1cccc2c1ncc1c(=O)n(-c3cccc(Cl)c3)c(=O)n(C3CCNCC3)c12` [Example 89, 3-(3-Chloro-phenyl)-7-methoxy-1-piperidin-4-yl-1H-pyrimido[5,4-c]quinoline-2,4-dione.dihydrochlode] the value was 5 nM; for `COc1cccc2c1ncc1c(=O)n(-c3cccc(Cl)c3)c(=O)n(C3CCN(C(C)=O)CC3)c12` [Example 90, 1-(1-Acetyl-piperidin-4-yl)-3-(3-chloro-phenyl)-7-methoxy-1H-pyrimido[5,4-c]quinoline-2,4-dione], 2 nM; for `COc1cccc2c1ncc1c(=O)n(-c3cccc(Cl)c3)c(=O)n(C3CCN(C(=O)c4ccccc4)CC3)c12` [Example 91, 1-(1-Benzoyl-piperidin-4-yl)-3-(3-chloro-phenyl)-7-methoxy-1H-pyrimido[5,4-c]quinoline-2,4-dione], 1 nM. `COc1cccc2c1ncc1c(=O)n(-c3cccc(Cl)c3)c(=O)n(C3CCN(S(=O)(=O)C(C)C)CC3)c12` [Example 93, 3-(3-Chloro-phenyl)-7-methoxy-1-[1-(propane-2-sulfonyl)-piperidin-4-yl]-1H-pyrimido[5,4-c]quinoline-2,4-dione]: the IC50 was 0.4 nM.

In the case of `COc1cccc2c1ncc1c(=O)n(-c3cccc(Cl)c3)c(=O)n(C3CCN(S(=O)(=O)N(C)C)CC3)c12` [Example 94, 4-[3-(3-Chloro-phenyl)-7-methoxy-2,4-dioxo-3,4-dihydro-2H-pyrimido[5,4-c]quinolin-1-yl]-piperidine-1-sulfonic acid dimethylamide], the IC50 came to 0.4 nM. For `COc1cccc2c1ncc1c(=O)n(-c3cccc(Cl)c3)c(=O)n(C3CCN(S(=O)(=O)c4ccccc4)CC3)c12` [Example 95, 1-(1-Benzenesulfonyl-piperidin-4-yl)-3-(3-chloro-phenyl)-7-methoxy-1H-pyrimido[5,4-c]quinoline-2,4-dione] the value was 1 nM.

(Values after patent US10085990B2, “Tricyclic compounds as modulators of TNF-α synthesis and as PDE4 inhibitors” (vTv Therapeutics LLC, priority 2008, dated 2018).)
